From US20250009834A1, “COMPOSITION OF BEVERAGE CONCENTRATE CONTAINING CITRIC ACID AND NATURAL ANTIOXIDANT” (priority 2021, published 2025)

Test: CaOx aggregation inhibition (aggregation coefficient of seed COM crystals)
Details: 200 μL sample added to 2 mL seed COM suspension, 37° C., 10 min; embodiment 100% concentration; BSA 1 mg/mL; citric acid positive control
Experimental: In the following in-vitro trials, all “%” marks represented percentages by weight. An embodiment of “100%” concentration was prepared by mixing 60 mL of a beverage concentrate of an exemplary composition (see Table 1 above) with 440 mL of distilled water, equivalent to a ratio of 0.136 parts of the exemplary composition to one part of water. An embodiment of a concentration lower than 100% was prepared by further diluting said embodiment of 100% concentration with distilled water by a conventionally known dilution means that is appropriate for food and beverages. All the mixtures concerned were conventionally mixed to achieve effective uniformity for food and beverages.
Seed calcium oxalate monohydrate (COM) crystals were prepared and diluted to 50 mg/mL in 0.05 M Tris/0.15 NaCl, pH 6.5. An embodiment having the 100% concentration, or bovine serum albumin (BSA) or distilled water (blank) (200 μL) was added to the freshly prepared working seed COM suspension (2 mL). After mixing, absorbance at 620 nm was measured as baseline (AT0). After incubating at 37° C. for 10 min. absorbance was measured again (AT10). The aggregation coefficient (AC) was calculated from: AC=((AT0−AT10)/10)×1,000. Higher AC value indicates higher COM aggregation.

Molecule	aggregation of seed COM crystals
O=C(O)CC(O)(CC(=O)O)C(=O)O [Citric acid]	strongly inhibited
bovine serum albumin [BSA]	did not
